Experimental data from patent publication US8680052B1, “Methods of treating, reducing the incidence of, and/or preventing ischemic events” (The Medicines Company, priority 2013, dated 2014).
Read-outs that look alike come from different tables or passages of the source.

Tested on: patients with acute coronary syndromes undergoing PCI
[1] = 48-hour, MITT Without STEMI, cangrelor vs clopidogrel
[2] = 48-hour, MITT Without STEMI, exploratory
[3] = 48 hours, ITT With STEMI, Cangrelor vs Clopidogrel
[4] = 48 hours, ITT Without STEMI, Cangrelor vs Clopidogrel
[5] = 48 hours, ITT, Cangrelor vs Clopidogrel
[6] = 48 hours, MITT With STEMI, Cangrelor vs Clopidogrel
[7] = 48 hours, MITT Without STEMI, Cangrelor vs Clopidogrel
[8] = 48 hours, MITT, Cangrelor vs Clopidogrel

Procedure: Patients were eligible for enrollment if they had stable angina, unstable angina, or non-ST-segment elevation (NSTE) MI with obstructive coronary artery disease and were scheduled to undergo PCI.
The infusion began within 30 minutes prior to PCI and continued for at least 2 hours or until the conclusion of the index procedure, whichever was longer. At the treating physician's discretion, the infusion could be continued for 4 hours.
All patients received aspirin 75-325 mg per local site standards. Adjunctive anticoagulants (unfractionated heparin, low molecular weight heparin, bivalirudin, or fondaparinux) and the procedural use of glycoprotein IIb/IIIa inhibitors were determined by the treating physician.
The primary efficacy endpoint was the 48-hour composite of all-cause mortality, MI, or ischemia-driven revascularization. Prespecified secondary efficacy endpoints included the composite of mortality or MI at 48 hours and 30 days; the composite of mortality, MI, or ischemia-driven revascularization at 30 days; the components of the composite endpoints at 48 hours and 30 days; stroke at 48 hours; abrupt closure, threatened abrupt closure, need for urgent coronary artery bypass grafting, or unsuccessful procedure during the index PCI; acute (24 hours) and 48 hours stent thrombosis; and all-cause mortality at 6 months and 1 year.
Rates of MI and ischemia-driven revascularization up to 30 days following the index procedure were assessed. Ischemia-driven revascularization was defined as symptoms of myocardial ischemia leading to urgent (within 24 hours of the last episode of ischemia) revascularization, which must have occurred after the index procedure concluded (i.e., guidewire removal). New electrocardiographic changes, acute pulmonary edema, ventricular arrhythmias, or hemodynamic instability could also constitute evidence of ischemia.
MI was defined by a new Q wave (duration >0.03 seconds) in two contiguous electrocardiographic leads or elevations in creatine kinase (CK) and CK-MB, including a rise of CK-MB≧3 times the local upper limit or normal and, when biomarkers were elevated prior to PCI, an additional 50% above baseline. One baseline troponin measurement was required for patients undergoing urgent PCI. Measurements of CK-MB were obtained at 2, 10, 17, and 24 hours post-PCI.
The primary efficacy analysis was to be determined in the modified intent-to-treat (mITT) population, defined as all randomized patients (excluding STEMI cohort) who received at least one dose of study drug and underwent the index PCI. The safety population consisted of all randomized patients who received any study drug. Patients in the safety analyses were assigned to a treatment arm based on treatment received, not as randomized.

CSCCNc1nc(SCCC(F)(F)F)nc2c1ncn2[C@@H]1O[C@H](COP(=O)(O)OP(=O)(O)C(Cl)(Cl)P(=O)(O)O)[C@@H](O)[C@H]1O [Cangrelor, cangrelor]
All-cause mortality (48-hour, MITT Without STEMI): 8 (0.2) | IDR (48-hour, MITT Without STEMI): 13 (0.3) | MI (48-hour, MITT Without STEMI): 278 (7.1) | Mortality/MI/IDR (primary endpoint) (48-hour, MITT Without STEMI): 290 (7.5) | Q-wave MI (48-hour, MITT Without STEMI): 4 (0.1) | Stent thrombosis (48-hour, MITT Without STEMI): 7 (0.2) | Stroke (48-hour, MITT Without STEMI): 6 (0.2) | OR (95% CI): All-cause mortality [1]: 1.59 (0.52, 4.87) | OR (95% CI): IDR [1]: 0.56 (0.28, 1.11) | OR (95% CI): MI [1]: 1.09 (0.91, 1.29) | OR (95% CI): Mortality/Q-wave MI/IDR [1]: 0.67 (0.39, 1.14) | OR (95% CI): Mortality/Q-wave MI/Stent thrombosis [1]: 0.78 (0.42, 1.44) | OR (95% CI): Q-wave MI [1]: 0.40 (0.12, 1.27) | OR (95% CI): Stent thrombosis [1]: 0.63 (0.25, 1.63) | OR (95% CI): Stroke [1]: 0.85 (0.29, 2.54) | Mortality/Q-wave MI/IDR [2]: 23 (0.6) | Mortality/Q-wave MI/Stent thrombosis [2]: 18 (0.5) | All-cause mortality (48 hours, ITT): 9 (0.2) no. (%) | IDR (48 hours, ITT): 21 (0.5) no. (%) | MI (48 hours, ITT): 294 (6.7) no. (%) | Mortality/MI/IDR (48 hours, ITT): 312 (7.1) no. (%) | Mortality/Q-wave MI/IDR (48 hours, ITT): 32 (0.7) no. (%) | Mortality/Q-wave MI/Stent thrombosis (48 hours, ITT): 23 (0.5) no. (%) | Q-wave MI (48 hours, ITT): 4 (0.1) no. (%) | Stent thrombosis (48 hours, ITT): 11 (0.2) no. (%) | Stroke (48 hours, ITT): 6 (0.1) no. (%) | All-cause mortality (48 hours, ITT With STEMI): 1 (0.2) no. (%) | IDR (48 hours, ITT With STEMI): 6 (1.2) no. (%) | MI (48 hours, ITT With STEMI): 16 (3.3) no. (%) | Mortality/MI/IDR (48 hours, ITT With STEMI): 20 (4.1) no. (%) | Mortality/Q-wave MI/IDR (48 hours, ITT With STEMI): 7 (1.5) no. (%) | Mortality/Q-wave MI/Stent thrombosis (48 hours, ITT With STEMI): 5 (1.0) no. (%) | Q-wave MI (48 hours, ITT With STEMI): 0 (0.0) no. (%) | Stent thrombosis (48 hours, ITT With STEMI): 4 (0.8) no. (%) | Stroke (48 hours, ITT With STEMI): 0 (0.0) no. (%) | All-cause mortality OR (95% CI) [3]: 0.209 (0.024, 1.793) | IDR OR (95% CI) [3]: 0.786 (0.271, 2.283) | MI OR (95% CI) [3]: 1.900 (0.831, 4.341) | Mortality/MI/IDR OR (95% CI) [3]: 1.054 (0.560, 1.985) | Mortality/Q-wave MI/IDR OR (95% CI) [3]: 0.560 (0.222, 1.416) | Mortality/Q-wave MI/Stent thrombosis OR (95% CI) [3]: 0.580 (0.193, 1.743) | Stent thrombosis OR (95% CI) [3]: 1.052 (0.262, 4.321) | All-cause mortality (48 hours, ITT Without STEMI): 8 (0.2) no. (%) | IDR (48 hours, ITT Without STEMI): 15 (0.4) no. (%) | MI (48 hours, ITT Without STEMI): 278 (7.1) no. (%) | Mortality/MI/IDR (48 hours, ITT Without STEMI): 292 (7.4) no. (%) | Mortality/Q-wave MI/IDR (48 hours, ITT Without STEMI): 25 (0.6) no. (%) | Mortality/Q-wave MI/Stent thrombosis (48 hours, ITT Without STEMI): 18 (0.5) no. (%) | Q-wave MI (48 hours, ITT Without STEMI): 4 (0.1) no. (%) | Stent thrombosis (48 hours, ITT Without STEMI): 7 (0.2) no. (%) | Stroke (48 hours, ITT Without STEMI): 6 (0.2) no. (%) | All-cause mortality OR (95% CI) [4]: 1.331 (0.461, 3.839) | IDR OR (95% CI) [4]: 0.649 (0.338, 1.246) | MI OR (95% CI) [4]: 1.090 (0.914, 1.299) | Mortality/MI/IDR OR (95% CI) [4]: 1.056 (0.890, 1.252) | Mortality/Q-wave MI/IDR OR (95% CI) [4]: 0.711 (0.425, 1.190) | Mortality/Q-wave MI/Stent thrombosis OR (95% CI) [4]: 0.747 (0.405, 1.379) | Q-wave MI OR (95% CI) [4]: 0.398 (0.125, 1.272) | Stent thrombosis OR (95% CI) [4]: 0.634 (0.246, 1.638) | Stroke OR (95% CI) [4]: 0.855 (0.287, 2.546) | All-cause mortality OR (95% CI) [5]: 0.821 (0.340, 1.983) | IDR OR (95% CI) [5]: 0.678 (0.389, 1.182) | MI OR (95% CI) [5]: 1.122 (0.945, 1.331) | Mortality/MI/IDR OR (95% CI) [5]: 1.058 (0.898, 1.248) | Mortality/Q-wave MI/IDR OR (95% CI) [5]: 0.667 (0.425, 1.045) | Mortality/Q-wave MI/Stent thrombosis OR (95% CI) [5]: 0.698 (0.409, 1.191) | Q-wave MI OR (95% CI) [5]: 0.401 (0.126, 1.279) | Stent thrombosis OR (95% CI) [5]: 0.735 (0.337, 1.603) | Stroke OR (95% CI) [5]: 0.752 (0.261, 2.170) | All-cause mortality (48 hours, MITT): 9 (0.2) no. (%) | IDR (48 hours, MITT): 19 (0.4) no. (%) | MI (48 hours, MITT): 292 (6.7) no. (%) | Mortality/MI/IDR (48 hours, MITT): 308 (7.1) no. (%) | Mortality/Q-wave MI/IDR (48 hours, MITT): 30 (0.7) no. (%) | Mortality/Q-wave MI/Stent thrombosis (48 hours, MITT): 23 (0.5) no. (%) | Q-wave MI (48 hours, MITT): 4 (0.1) no. (%) | Stent thrombosis (48 hours, MITT): 11 (0.3) no. (%) | Stroke (48 hours, MITT): 6 (0.1) no. (%) | All-cause mortality (48 hours, MITT With STEMI): 1 (0.2) no. (%) | IDR (48 hours, MITT With STEMI): 6 (1.3) no. (%) | MI (48 hours, MITT With STEMI): 14 (3.1) no. (%) | Mortality/MI/IDR (48 hours, MITT With STEMI): 18 (4.0) no. (%) | Mortality/Q-wave MI/IDR (48 hours, MITT With STEMI): 7 (1.6) no. (%) | Mortality/Q-wave MI/Stent thrombosis (48 hours, MITT With STEMI): 5 (1.1) no. (%) | Q-wave MI (48 hours, MITT With STEMI): 0 (0.0) no. (%) | Stent thrombosis (48 hours, MITT With STEMI): 4 (0.9) no. (%) | Stroke (48 hours, MITT With STEMI): 0 (0.0) no. (%) | All-cause mortality OR (95% CI) [6]: 0.249 (0.028, 2.235) | IDR OR (95% CI) [6]: 0.857 (0.286, 2.571) | MI OR (95% CI) [6]: 1.778 (0.739, 4.282) | Mortality/MI/IDR OR (95% CI) [6]: 1.064 (0.541, 2.092) | Mortality/Q-wave MI/IDR OR (95% CI) [6]: 0.632 (0.243, 1.645) | Mortality/Q-wave MI/Stent thrombosis OR (95% CI) [6]: 0.622 (0.202, 1.917) | Stent thrombosis OR (95% CI) [6]: 1.002 (0.249, 4.033) | All-cause mortality (48 hours, MITT Without STEMI): 8 (0.2) no. (%) | IDR (48 hours, MITT Without STEMI): 13 (0.3) no. (%) | MI (48 hours, MITT Without STEMI): 278 (7.1) no. (%) | Mortality/MI/IDR (Prespecified primary endpoint) (48 hours, MITT Without STEMI): 290 (7.5) no. (%) | Mortality/Q-wave MI/IDR (48 hours, MITT Without STEMI): 23 (0.6) no. (%) | Mortality/Q-wave MI/Stent thrombosis (48 hours, MITT Without STEMI): 18 (0.5) no. (%) | Q-wave MI (48 hours, MITT Without STEMI): 4 (0.1) no. (%) | Stent thrombosis (48 hours, MITT Without STEMI): 7 (0.2) no. (%) | Stroke (48 hours, MITT Without STEMI): 6 (0.2) no. (%) | primary composite of all-cause mortality, MI, or ischemia-driven revascularization (48 hours, MITT Without STEMI): 7.5% | All-cause mortality OR (95% CI) [7]: 1.591 (0.520, 4.869) | IDR OR (95% CI) [7]: 0.560 (0.283, 1.108) | MI OR (95% CI) [7]: 1.085 (0.910, 1.294) | Mortality/MI/IDR (Prespecified primary endpoint) OR (95% CI) [7]: 1.048 (0.883, 1.243) | Mortality/Q-wave MI/IDR OR (95% CI) [7]: 0.670 (0.394, 1.140) | Mortality/Q-wave MI/Stent thrombosis OR (95% CI) [7]: 0.777 (0.419, 1.442) | Q-wave MI OR (95% CI) [7]: 0.397 (0.124, 1.267) | Stent thrombosis OR (95% CI) [7]: 0.632 (0.245, 1.631) | Stroke OR (95% CI) [7]: 0.852 (0.286, 2.536) | All-cause mortality OR (95% CI) [8]: 0.995 (0.394, 2.508) | IDR OR (95% CI) [8]: 0.628 (0.353, 1.118) | MI OR (95% CI) [8]: 1.107 (0.932, 1.315) | Mortality/MI/IDR OR (95% CI) [8]: 1.049 (0.889, 1.238) | Mortality/Q-wave MI/IDR OR (95% CI) [8]: 0.661 (0.416, 1.051) | Mortality/Q-wave MI/Stent thrombosis OR (95% CI) [8]: 0.737 (0.429, 1.265) | Q-wave MI OR (95% CI) [8]: 0.397 (0.125, 1.268) | Stent thrombosis OR (95% CI) [8]: 0.729 (0.334, 1.588) | Stroke OR (95% CI) [8]: 0.852 (0.286, 2.538) | All-cause mortality (48 hours, Safety population): 9 (0.2) no. (%) | IDR (48 hours, Safety population): 19 (0.4) no. (%) | MI (48 hours, Safety population): 294 (6.7) no. (%) | Mortality/MI/IDR (48 hours, Safety population): 310 (7.1) no. (%) | Mortality/Q-wave MI/IDR (48 hours, Safety population): 30 (0.7) no. (%) | Mortality/Q-wave MI/Stent thrombosis (48 hours, Safety population): 23 (0.5) no. (%) | Q-wave MI (48 hours, Safety population): 4 (0.1) no. (%) | Stent thrombosis (48 hours, Safety population): 11 (0.3) no. (%) | Stroke (48 hours, Safety population): 6 (0.1) no. (%) | All-cause mortality (30 days, ITT): 40 (0.9) no. (%) | IDR (30 days, ITT): 62 (1.4) no. (%) | MI (30 days, ITT): 318 (7.3) no. (%) | Mortality/MI/IDR (30 days, ITT): 381 (8.7) no. (%) | Mortality/Q-wave MI/IDR (30 days, ITT): 102 (2.3) no. (%) | Mortality/Q-wave MI/Stent thrombosis (30 days, ITT): 68 (1.6) no. (%) | Q-wave MI (30 days, ITT): 9 (0.2) no. (%)
